The text below walks through data of paper PMC11207111, “Assessment of the Activity of Nitroisoxazole Derivatives against Trypanosoma cruzi” (Molecules, 2024).

One series concerns Vero mammalian cells. As to the kind of experiment: Cytotoxicity (MTT) on Vero cells. As to conditions: Chlorocebus sabaeus, 24 h. It counts as cell-based. As to the method:
Additionally, the cytotoxicity of the compounds on VERO mammalian cells was assessed (Table 4). […] It is observed that the majority of the derivatives present considerable cytotoxicity. […] RPMI 1640 medium) for 24 h. […] The effects of the compounds on trypomastigote and Vero cell viability were evaluated by tetrazolium salt reduction assay (MTT). […] The plates were kept overnight at 37 °C (28 °C for epimastigotes), and the optical density (OD) was determined using a 96-well microplate reader (Vantaa, Finland) at 570 nm. Under these conditions, the OD is directly proportional to each well’s viable number of cells. The experiments were performed in triplicate across three different assays.

For series [1], the system named is trypomastigote of T. cruzi Dm28. As to the kind of experiment: Trypanocidal activity (MTT) on trypomastigotes. Format: cell-based. As to conditions: Trypanosoma cruzi; for killing at 100 µM: 24 h, n.a = not active, read-out: % T. cruzi Trypomastigote (trypanocidal effect); for IC50: T. cruzi Dm28, 24 h. The method, then:
As a preliminary step, a study of nitroisoxazole derivatives on the epimastigote form of T. cruzi was performed. Despite the epimastigote form not being a clinical form present in mammals, its easy handling has allowed screening for the trypanocidal activity of various compounds. It is worth noting that, during the intracellular life cycle of the parasite, a form similar to the epimastigote, which is biochemically and morphologically identical to the form present in the vector, has been described. […] This is consistent with studies by Fonseca-Berzal et al. […] Additionally, compounds with higher activity have aromatic rings as substituents for nitroisoxazoles, confirming what was described Do […] [40]. […] It has also been determined that the presence of an isoxazole is essential for activity, as its aromatic structure contains a weak nitrogen-oxygen bond that, under different reaction conditions, can undergo ring cleavage, increasing activity. The results obtained on epimastigotes cannot be conclusive for determining potential Chagas agents, so conducting studies on the infective, extracellular, non-replicative trypomastigote form of T. cruzi present in humans is essential. […] RPMI 1640 medium) for 24 h. […] The effects of the compounds on trypomastigote and Vero cell viability were evaluated by tetrazolium salt reduction assay (MTT). […] The plates were kept overnight at 37 °C (28 °C for epimastigotes), and the optical density (OD) was determined using a 96-well microplate reader (Vantaa, Finland) at 570 nm. Under these conditions, the OD is directly proportional to each well's viable number of cells. The experiments were performed in triplicate across three different assays.

Series [2] can be described thus: Cyclic voltammetry (reduction of the nitro group). The arrangement: key to −EpcI / −EpcII / −EpaII / −EpaI: potentials in V vs Ag/AgCl; |ΔEp|: unit not given here. Format: physicochemical. An excerpt: The chemistry mechanism of reduction in nitroisoxazole derivatives was investigated using cyclic voltammetry.
The peak near −1.32 V corresponds to a quasi-reversible one-electron transfer, according to the criteria of Nicholson–Shain [26] (Table 1), attributable to the species −NO2/NO2.− . The latter species stable anion radical at room temperature. […] An irreversible peak at −0.93 V to the mono-electronic transfer −HNO2/HNO2.− is observed, coupled with a chemical reaction associated with […] of the formed radical. This was evidenced by the addition of NaOH (1 M), which caused a decrease in the Ic peak (Figure 2c).
As previously described, an irreversible signal assigned to hydroxylamine oxidation to a nitroso derivative is also observed for N-acylhydrazones organometallic compounds with a pendant 5-nitrofuryl group. […] Compound 7, which has the least negative reduction potential, can be attributed to introducing a nitro group in the para position of the nitroisoxazole ring. This effect can also be observed in derivatives containing halogens in the same position.
Electrochemical characterization of the new compounds was performed through cyclic voltammetry (CV) on a 693 VA Metrohm instrument (Tokyo, Japan) equipped with a 694 VA Stand converter and 693 VA processor. Potentials were recorded against the Ag/AgCl reference electrode; a hanging drop of mercury (HDME) was used as a working electrode, and platinum was used as an auxiliary electrode. Tetrabutylammonium perchlorate (TBAP, 0.1 M) in DMSO was used as a supporting electrolyte under an N2 atmosphere at room temperature. Using Nicholson´s procedure, the Ipa/Ipc values (RNO2/RNO2^−) were measured from each cyclic voltammogram with a scan rate between 0.1 and 2.5 V/s.

The next series deals with T. cruzi trypomastigotes. Description: Generation of ROS (DCFH2-DA fluorescent probe). It counts as cell-based, Trypanosoma cruzi. As to conditions: 100 µM, 40 min, vs control without compound. As to the method: To generate radical species on T. cruzi trypomastigotes, intracellular free radicals were determined using the fluorescent probe dichlorofluorescein (DCF).
The cultures were incubated with a 20 µM DCFH2-DA solution for 15 min at 28 °C. Then, they were centrifuged at 3500 rpm and washed 2 times with phosphate buffer saline (PBS) pH 7.4. Cells loaded with DCFH2-DA were transferred to a Nunc® fluorescence 96-well plate (Thermo Fisher Scientific Inc., Waltham, MA, USA), where the nitroisoxazoles derivates were added at 100 µM. Fluorescence (exi: 488 nm, emi: 528 nm) was recorded for 40 min in a BioTek (Winooski, VT, USA) Synergy HT spectrofluorometer. The area under increase curves over time was determined using Oring 8 software, with areas normalized to control. Results are the means ± SD of three independent experiments.

Series [3] deals with epimastigote of T. cruzi Dm28. As to the kind of experiment: Trypanocidal activity (MTT) on epimastigotes. Format: cell-based. The following applies: Trypanosoma cruzi; for killing at 100 µM: 24 h, n.a = not active, read-out: % T. cruzi Epimastigote (trypanocidal effect); for IC50: T. cruzi Dm28, 24 h, read-out: IC50 T. cruzi E (epimastigote). The method, then: As a preliminary step, a study of nitroisoxazole derivatives on the epimastigote form of T. cruzi was performed. Despite the epimastigote form not being a clinical form present in mammals, its easy handling has allowed screening for the trypanocidal activity of various compounds. It is worth noting that, during the intracellular life cycle of the parasite, a form similar to the epimastigote, which is biochemically and morphologically identical to the form present in the vector, has been described. […] RPMI 1640 medium) for 24 h. […] The effects of the compounds on trypomastigote and Vero cell viability were evaluated by tetrazolium salt reduction assay (MTT). […] The plates were kept overnight at 37 °C (28 °C for epimastigotes), and the optical density (OD) was determined using a 96-well microplate reader (Vantaa, Finland) at 570 nm. Under these conditions, the OD is directly proportional to each well’s viable number of cells. The experiments were performed in triplicate across three different assays.

Series [4] is described as follows: ORAC-FL antioxidant capacity. The following applies: relative to Trolox; phosphate buffer 75 mM, pH 7.4, 37 °C. The method, then:
To corroborate the generation of the nitro radical, the antioxidant capacity of the series under study was determined by ORAC-FL methodology, employing a fluorescent probe to capture oxygen-centered radicals (Table 2). The ORAC-FL values of the studied compounds are close to the reference value of Trolox, indicating a low antioxidant capacity. For compounds (1-3), the presence of amino substituents decreases antioxidant activity due to their […] characteristics, preventing the presence of labile hydrogens. […] Compounds 4 and 10 present similar ORAC indexes as aromatic rings with high electron density insert the transfer of labile protons. Antioxidant capacity was determined using the ORAC-fluorescence methodology (ORAC-FL). The analysis used a 96-well white polystyrene plate reader (EnSpire multimode PerkinElmer, Waltham, MA, USA). The reaction was carried out in phosphate buffer (75 mM, pH 7.4). […] A blank with FL and AAPH, using dimethyl sulfoxide instead of the antioxidant solution, was used in each assay. […] The inhibitor capacity was expressed as ORAC-FL values and quantified by integrating the area under the curve (AUCNET). All reaction mixtures were prepared in triplicate, and at least three independent assays were performed for each sample. The area under the fluorescence decay curve (AUC) was calculated by integrating the fluorescence decay where F0 is the initial fluorescence read at 0 min, and F is the fluorescence read at the time. The AUCNET corresponding to the sample was calculated by subtracting the AUC corresponding to the blank. Data were processed using Origin […].5 SR2 (San Francisco, CA, USA). The ORAC-FL indices were calculated according to the following Equation (1): (1) ORAC-[…]]

Setting [5] is: cyclic voltammetry at 2.0 V/s, DMSO, 0.1 M TBAP, vs Ag/AgCl.

Molecules are shown by their SMILES.

`Cc1noc(/C=C/c2cn(-c3ccccc3)c3ccccc23)c1[N+](=O)[O-]` [Compound 12, (E)-3-Methyl-4-nitro-5-(2-(1-phenyl-1H-indol-3-yl)vinyl)isoxazole] came in with a melting point of 196 to 199 °C. In the series on Vero mammalian cells, the IC50 came to 141 ± 6 µM. For the same compound, in series [1], the killing at 100 µM is 16 ± 2% and the IC50 was more than 400 µM. Also, in series [2] (cyclic voltammetry at 2.0 V/s), the Ipa/Ipc is −0.36 and the “|ΔEp|” value came out at 90. Moreover, in series [2] (setting [5]), the “−EpaII” value is on record as 0.87 and the “−EpcII” value is recorded as 0.96. Also, the “ROS generation (DCF fluorescence intensity)” value (from here on “ROS generation”) with T. cruzi trypomastigotes is given as “did not show ROS generation”. In series [3], the killing at 100 µM stood at 5 ± 2% and the IC50 was more than 400 µM. For the same compound, the “ORAC-FL Index” value in series [4] came to 0.4 ± 0.1.
Consider `Cc1noc(/C=C/c2cn(-c3ccc(Cl)cc3)c3ccccc23)c1[N+](=O)[O-]` [Compound 13, (E)-5-(2-(1-(4-Chlorophenyl)-1H-indol-3-yl)vinyl)-3-methyl-4-nitroisoxazole], for which the melting point was 217 to 220 °C. 102 ± 6 µM corresponded to half-maximal inhibition in the series with Vero mammalian cells (IC50). In series [1], the killing at 100 µM came out at 14 ± 3% and the IC50 is more than 400 µM. In series [2] (cyclic voltammetry at 2.0 V/s), the Ipa/Ipc was −0.41 and the “|ΔEp|” value came to 90. For the same compound, in series [2] (setting [5]), the “−EpaII” value was found to be 0.90, the “−EpcI” value came to 0.75 and the “−EpcII” value is listed as 0.99. Moreover, the “ROS generation” value in the series on T. cruzi trypomastigotes is given as “did not show ROS generation”. Further, the IC50 in series [3] was more than 400 µM. Moreover, the “ORAC-FL Index” value in series [4] is 0.4 ± 0.1.
Consider `COc1cc(/C=C/c2onc(C)c2[N+](=O)[O-])ccc1O` [Compound 9, (E)-2-Methoxy-4-(2-(3-methyl-4-nitroisoxazol-5-yl)vinyl)phenol], for which the melting point lay in the range of 189 to 191 °C. 244.5 ± 0.5 µM corresponded to half-maximal inhibition with Vero mammalian cells (IC50). Further, in series [1], the killing at 100 µM was 15 ± 3% and the IC50 was found to be 400 ± 2 µM. In series [2] (cyclic voltammetry at 2.0 V/s), the Ipa/Ipc is −0.17 and the “|ΔEp|” value is recorded as 160. Also, in series [2] (setting [5]), the “−EpaI” value was 0.82, the “−EpaII” value was determined as 1.07, the “−EpcI” value was 0.66 and the “−EpcII” value is reported as 0.91. For the same compound, in series [2] (cyclic voltammogram, Figure 2d), the “IIIc couple potential (formation of a hydroxylamine derivative)” value is reported as −1.14 V. Besides, the “ROS generation” value in the series with T. cruzi trypomastigotes is listed as “did not show ROS generation”. In series [3], the killing at 100 µM is 52 ± 4% and the IC50 is 166 ± 4 µM. In addition, in series [4], the “ORAC-FL Index” value turned out to be 0.7 ± 0.2.
For the compound `CCN(CC)c1ccc2cc(/C=C/c3onc(C)c3[N+](=O)[O-])c(=O)oc2c1` [Compound 11, (E)-7-(Diethylamino)-3-(2-(3-methyl-4-nitroisoxazol-5-yl)vinyl)-2H-chromen-2-one], the melting point fell in the range of 224 to 226 °C. Besides, the IC50 with Vero mammalian cells came out at 125.9 ± 0.1 µM. In addition, in series [1], the killing at 100 µM stood at 10 ± 4% and the IC50 stood at 400 ± 5 µM. Besides, in series [2] (setting [5]), the “−EpcI” value amounted to 0.79 and the “−EpcII” value came out at 1.21. Besides, in the series with T. cruzi trypomastigotes, the “ROS generation” value is recorded as “increase in fluorescence intensity”. In series [3], the IC50 was more than 400 µM. For the same compound, in series [4], the “ORAC-FL Index” value was 0.21 ± 0.01.
`Cc1noc(/C=C/N2CCCCC2)c1[N+](=O)[O-]` [Compound 3, (E)-3-Methyl-4-nitro-5-(2-(piperidin-1-yl)vinyl)isoxazole] came in with a melting point of 151 to 153 °C. The IC50 in the series on Vero mammalian cells was more than 400 µM. Besides, in series [1], the killing at 100 µM is 20 ± 2% and the IC50 was more than 400 µM. For the same compound, in series [2] (cyclic voltammetry at 2.0 V/s), the Ipa/Ipc is −0.19 and the “|ΔEp|” value came to 100. For the same compound, in series [2] (setting [5]), the “−EpaII” value amounted to 1.19 and the “−EpcII” value is 1.29. For the same compound, in the series on T. cruzi trypomastigotes, the “ROS generation” value is on record as “increase in fluorescence intensity”. Moreover, in series [3], the killing at 100 µM was 17 ± 5% and the IC50 was more than 400 µM. In series [4], the “ORAC-FL Index” value is 0.52 ± 0.05.
Consider `Cc1noc(/C=C/c2ccc(Br)cc2)c1[N+](=O)[O-]` [Compound 17, (E)-5-(4-Bromostyryl)-3-methyl-4-nitroisoxazole], for which the melting point was 195 to 198 °C. This compound also yielded an IC50 in the series on Vero mammalian cells of more than 400 µM. In series [1], the killing at 100 µM came out at 15 ± 5% and the IC50 was more than 400 µM. Moreover, in series [2] (setting [5]), the “−EpcI” value is reported as 0.81 and the “−EpcII” value worked out at 1.53. In addition, the “ROS generation” value in the series on T. cruzi trypomastigotes is recorded as “did not show ROS generation”. Besides, in series [3], the killing at 100 µM was 27 ± 1% and the IC50 was more than 400 µM. In addition, in series [4], the “ORAC-FL Index” value turned out to be 0.4 ± 0.2.

By melting point is commonly meant the temperature, or range, at which the solid turns liquid. In general, IC50 refers to the point on the concentration scale where inhibition reaches its midpoint.
